The numbers were not newly measured in US7612172B2, “Nucleic acids and corresponding proteins entitled 282P1G3 useful in treatment and detection of cancer” (Agensys, Inc., priority 2002, dated 2009), which cites them from elsewhere.

Series [1] deals with HLA-DR alleles.
Series [2] has as its system T helper lymphocytes. Conditions: regardless of HLA type.
For series [3], the system named is LAGE-I tumor specific gene. Conditions: lymphoblastoid cells.

On to aKXVAAWTLKAa, for which the “binding to HLA-DR alleles” value in series [1] is “bind to most HLA-DR alleles”. Further, the “stimulation of T helper lymphocyte response” value in series [2] is on record as “stimulate the response of T helper lymphocytes from most individuals”.
With `Nc1ncn([C@H]2C[C@H](O)[C@@H](CO)O2)c(=O)n1` [deoxy-azacytidine], the “expression of the LAGE-I tumor specific gene” value in series [3] is on record as “induced”.
